These are literature values, as cited in US8614228B2, “Quinone prodrug compositions and methods of use” (ArQule, Inc., priority 2004, dated 2013).

The data set has as its system normal fresh or proliferating human PBMC.

Turning to `CC1(C)CCC2=C(O1)c1ccccc1C(=O)C2=O` [β-lapachone, 3,4-dihydro-2,2-dimethyl-2H-naphtho[1,2-b]pyran-5,6-dione], the cytotoxic effects result is “No cytotoxic effects were observed”.
